For assay [1], the system named is collagen type I. As to the kind of experiment: Collagen type I gene expression in human dermal fibroblasts (quantitative RT-PCR). The format is cell-based. The conditions noted are these: for Ratio versus calibrator (collagen type I mRNA): incubation for 1 day, EF1α reference gene; for rate of collagen type I gene expression (in words): human dermal fibroblasts. The protocol: Human dermal fibroblasts are seeded and incubated for 3 to 5 days at 37° C., CO2=5%.
After exchange of cell culture medium to a defined cell culture medium with the products to be tested, incubation for 1 day at 37° C., CO2=5%. The recovering of cells and numeration before recovering of RNA from human dermal fibroblasts cultured in vitro.
The level of mRNA encoding the collagen type I was evaluated by quantitative RT-PCR or real time RT-PCR.
The results are firstly expressed by the crossing point (CP) which refers to the number of cycle required for the rising of a distinct fluorescence. Then the results of each sample, are calculated as a ratio referring to a reference gene or “house keeping” gene: CP of target/CP of reference gene. EF1α gene was used as internal control gene to normalise the mRNA evaluation.

In assay [2] the test system is lumican. As to the kind of experiment: Stimulation of the synthesis of lumican on aged human dermal fibroblasts (immunocytochemistry, image analysis). It counts as cell-based. As to conditions: aged human dermal fibroblasts in culture. The protocol: Human dermal fibroblasts cell suspension were prepared by standard digestion by collagenase of human adult dermis specimens collected from plastic surgery.
After repeated passages (Hayflick model) to mimic ageing in vitro, human dermal fibroblasts were seeded in DMEM for 2 days at 37° C., CO2=5%. Then, acetyl-QDVH (1 and 3 μg/ml) is introduced and after 6 days of incubation at 37° C., CO2=5%, the expression of the lumican synthesis was evaluated on glass slides by immunocytochemistry.
Quantification of the staining was carried out by image analysis.
The results are expressed as the sum of the product of number of pixels by green detected values (arbitrary unit).

Assay [3] deals with protein kinase C (PKC). As to conditions: osteosarcoma cells of ROS 17/2 rats; Jouishomme et al. 1992, 1994; cited from earlier work.
Assay [4] relates to human dermal fibroblast. Put plainly: Human dermal fibroblast mRNA profile on cDNA-array (Panhuman 10K). It counts as cell-based. As to conditions: for Expression evolution / Log2 (treated/non-treated): 5 μg/ml. The protocol: The aim of this study is to detect the variation of mRNA profile of human dermal fibroblast induced by treatment with the PTH(29-32) peptide fragment.
Normal human dermal fibroblast were cultured in standard medium supplemented with foetal calf serum (FCS) during three days in a 5% CO2 atmosphere. After cultures, the medium was changed by a standard medium either supplemented with PTH(29-32) peptide fragment at 5 μg/ml or not. After an incubation of either 3 or 24 hours, cultures were arrested and total RNAs of the different cultures were extracted. The cDNAs obtained from peptide-treated RNAs or from non-treated RNAs were labelled with cyanine-3 and cyanine-5, respectively.
Mixture of treated and non-treated cDNAs were hybridised on commercially Panhuman® 10K (MW Biotech, Roissy Charles-de-Gaulle, France) cDNA-array allowing to study near to 10,000 gene expressions. After highly stringent washing, cyanine-3 and cyanine-5 fluorescences were measured, allowing to evaluate a […] expression ratio of each analyzed gene.
Results are expressed as Log2 of the ratio between the measured expression of genes in the treated vs non-treated conditions.

Assay [5] relates to human dermis fibroblasts. Put plainly: Effects on the growth of human dermis fibroblasts (DNA cell content, Hoechst 33258). It counts as cell-based. The conditions noted are these: for DNA after culture for 3 days / DNA after culture for 6 days: % relative to control medium, mean of four tests in triplicate. Here is the method:
The object of this test is to examine the regenerating and revitalising activities of cultures of human dermis fibroblasts in vitro.
Human dermis fibroblasts were incubated in a standard medium for cell cultures with foetal calf serum (FCS). After culture for one day at 37° C. and with a 5% content of CO2, the medium was changed for a standard medium with different concentrations of peptides. After further incubation for three days and six days, the number of living cells was established by establishing the DNA cell content with a fluorescent probe (Hoechst 33258).

Setting [6] is: col1a1, alpha 1 type i collagen, 3 h incubation.
[7] abbreviates: cspg2, chondroitin sulfate 2 (versican), 3 h incubation.
The mark [8] stands for this setting: cspg2, chondroitin sulfate 2 (versican), 24 h incubation.
The mark [9] stands for this setting: ctgf, connective tissue growth factor, 3 h incubation.
[10] abbreviates: ctgf, connective tissue growth factor, 24 h incubation.
Where [11] appears, read: fgf2, fibroblast growth factor 2, 3 h incubation.
Where [12] appears, read: gpc1, glypican 1 precursor, 3 h incubation.
[13] abbreviates: gpc1, glypican 1 precursor, 24 h incubation.
Where [14] appears, read: itga2b, integrin alpha 2b, 3 h incubation.
Where [15] appears, read: itgb4, integrin, beta 4, 24 h incubation.
The mark [16] stands for this setting: itgb5, integrin, beta 5, 3 h incubation.
Setting [17] is: itgb5, integrin, beta 5, 24 h incubation.
[18] abbreviates: nid, nidogen (enactin), 3 h incubation.
Setting [19] is: nid, nidogen (enactin), 24 h incubation.
Where [20] appears, read: tgfbr3, transforming growth factor, beta receptor III (betaglycan), 3 h incubation.
Setting [21] is: tgfbr3, transforming growth factor, beta receptor III (betaglycan), 24 h incubation.
Where [22] appears, read: thbs1, thrombospondin 1, 24 h incubation.
Where [23] appears, read: timp1, tissue inhibitor of metalloproteinase 1, 3 h incubation.

No end group written: not given here.

Turning to TGFβ [reference compound], the “Ratio versus calibrator (collagen type I mRNA)” value in assay [1] (10 ng/ml) is 2.12. Also, the “rate of collagen type I gene expression (in words)” value in assay [1] is recorded as “strongly enhanced”.

Take “acetyl-Gln-Asp-Val-His (Ac-QDVH) [Acetyl-QDVH, acetylated PTH (29-32) peptide fragment]”: the “Ratio versus calibrator (collagen type I mRNA)” value in assay [1] (3 μg/ml) came out at 1.05; in assay [1] (10 μg/ml), 1.18. For the same substance, the “rate of collagen type I gene expression (in words)” value in assay [1] is “significantly enhanced”. The results for the “lumican expression (in words)” value in assay [2] (listed as acetyl-Gln-Asp-Val-His) and in assay [2] (listed as acetyl-QDVH) were “increase of lumican expression” and “significantly stimulated the expression of lumican with a dose-dependent effect”, respectively.

As for “Leu-Gln-Asp-Val-His-Asn-Phe (LQDVHNF; Fragment of a parathyroid hormone) [PTH region (28 to 34)]”, the “activation of protein kinase C (in words)” value in assay [3] is given as “stimulator of the protein kinase C (PKC)”.

Take “IL-4: IL4 (positive control) obtained from SIGMA [reference compound]”: in assay [2], the “lumican expression (in words)” value is given as “increase of lumican expression”.

Turning to “Gln-Asp-Val-His (QDVH; Fragment of a parathyroid hormone)”, the Expression evolution entry in assay [4] (bgn, biglycan, 3 h incubation) is “increase”; in assay [4] (bgn, biglycan, 24 h incubation), “increase”; in assay [4] (setting [6]) it was “increase”; in assay [4] (setting [7]) it was “increase”; in assay [4] (setting [8]), “increase”; in assay [4] (setting [9]), “increase”. In addition, the Expression evolution entry in assay [4] (setting [10]) was “increase”; in assay [4] (setting [11]), “increase”; in assay [4] (setting [12]), “no variation”; in assay [4] (setting [13]), “increase”; in assay [4] (setting [14]) it was “increase”; in assay [4] (setting [15]), “increase”. The Expression evolution result in assay [4] (setting [16]) is on record as “no variation”; in assay [4] (setting [17]) it was “increase”; in assay [4] (setting [18]), “increase”; in assay [4] (setting [19]) it was “increase”; in assay [4] (setting [20]), “increase”; in assay [4] (setting [21]) it was “increase”. Besides, the Expression evolution result in assay [4] (setting [22]) and in assay [4] (setting [23]) was “increase” throughout. The “Log2 (treated/non-treated)” value is 2.16 in assay [4] (bgn, biglycan, 3 h incubation); 0.66 in assay [4] (bgn, biglycan, 24 h incubation); 0.93 in assay [4] (setting [6]); 1.32 in assay [4] (setting [7]); 1.20 in assay [4] (setting [8]); 0.77 in assay [4] (setting [9]). The “Log2 (treated/non-treated)” value in assay [4] (setting [10]) is reported as 0.74; in assay [4] (setting [11]), 0.86; in assay [4] (setting [12]), −0.17; in assay [4] (setting [13]), 0.73; in assay [4] (setting [14]), 0.50; in assay [4] (itga2b, integrin alpha 2b, 24 h incubation), 0.15. Moreover, the “Log2 (treated/non-treated)” value came out at 1.15 in assay [4] (setting [15]); 0.05 in assay [4] (setting [16]); 0.68 in assay [4] (setting [17]); 1.76 in assay [4] (setting [18]); 0.58 in assay [4] (setting [19]); 2.00 in assay [4] (setting [20]). Also, the “Log2 (treated/non-treated)” value is 1.54 in assay [4] (setting [21]); 1.52 in assay [4] (setting [22]); 0.15 in assay [4] (setting [23]); −0.25 in assay [4] (timp1, tissue inhibitor of metalloproteinase 1, 24 h incubation). The “expression of fibroblast genes (in words)” value in assay [4] (growth factors, extra-cellular matrix components, DEJ components) was “stimulates the expression of some genes”. The “activation of protein kinase C (in words)” value in assay [3] is recorded as “minimum domain of PTH in a position to function fully in the activation of PKC”. In addition, the “growth of human dermis fibroblasts (in words)” value in assay [5] (fibroblasts cultivated from biopsies of healthy adult subjects) was “stimulates the growth of human dermis fibroblasts”. Moreover, the “DNA after culture for 3 days” value in assay [5] (peptide 0.001 %) worked out at 162%; in assay [5] (peptide 0.003 %), 155%. Further, the “DNA after culture for 6 days” value is 119% in assay [5] (peptide 0.001 %) and 115% in assay [5] (peptide 0.003 %). For the same substance, the “persistence of growth-stimulating activity (in words)” value in assay [5] (without any change in the cell culture medium) is recorded as “still detectable after 6 days”.
